Values of other authors, collected in US20090137633A1, “Stable pharmaceutical composition of rabeprazole” (priority 2003, published 2009).
Structures can show the parent of a compound that is named as a salt.

Columns and labels:
[1] = target: T1, gastric H^+ K^+ ATPase enzyme system (proton pump) (Homo sapiens, UniProt P20648); conditions: in vivo
T1 construct: at the secretory surface of the gastric parietal cell; host or cells: gastric parietal cell (in vivo)
T1 sequence (P20648 whole entry): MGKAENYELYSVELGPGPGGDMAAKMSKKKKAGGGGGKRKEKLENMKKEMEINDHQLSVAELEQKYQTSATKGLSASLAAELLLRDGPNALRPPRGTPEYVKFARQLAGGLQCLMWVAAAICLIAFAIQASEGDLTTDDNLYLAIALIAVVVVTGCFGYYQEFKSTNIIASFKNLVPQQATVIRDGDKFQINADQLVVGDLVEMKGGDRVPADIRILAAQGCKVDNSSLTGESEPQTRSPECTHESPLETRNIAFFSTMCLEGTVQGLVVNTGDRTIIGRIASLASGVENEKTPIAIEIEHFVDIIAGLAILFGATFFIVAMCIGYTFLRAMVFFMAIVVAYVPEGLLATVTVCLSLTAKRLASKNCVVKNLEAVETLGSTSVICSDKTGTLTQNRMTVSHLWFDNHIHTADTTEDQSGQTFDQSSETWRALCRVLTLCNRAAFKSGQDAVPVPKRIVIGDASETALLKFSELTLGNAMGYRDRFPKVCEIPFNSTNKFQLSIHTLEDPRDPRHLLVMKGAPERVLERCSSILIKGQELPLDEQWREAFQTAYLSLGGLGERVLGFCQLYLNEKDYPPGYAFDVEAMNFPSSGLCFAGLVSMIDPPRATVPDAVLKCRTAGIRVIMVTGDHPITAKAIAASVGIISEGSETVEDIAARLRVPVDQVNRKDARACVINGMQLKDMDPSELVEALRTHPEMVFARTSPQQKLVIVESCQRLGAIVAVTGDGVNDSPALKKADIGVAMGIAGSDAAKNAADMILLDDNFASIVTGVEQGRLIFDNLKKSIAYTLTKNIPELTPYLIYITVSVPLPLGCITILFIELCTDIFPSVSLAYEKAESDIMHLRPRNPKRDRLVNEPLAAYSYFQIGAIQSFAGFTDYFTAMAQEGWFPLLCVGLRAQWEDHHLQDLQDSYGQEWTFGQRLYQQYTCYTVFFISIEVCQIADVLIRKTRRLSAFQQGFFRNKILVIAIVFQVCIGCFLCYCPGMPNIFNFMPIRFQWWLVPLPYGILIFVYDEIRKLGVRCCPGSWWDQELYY
T1 sequence (P51164 whole entry partner): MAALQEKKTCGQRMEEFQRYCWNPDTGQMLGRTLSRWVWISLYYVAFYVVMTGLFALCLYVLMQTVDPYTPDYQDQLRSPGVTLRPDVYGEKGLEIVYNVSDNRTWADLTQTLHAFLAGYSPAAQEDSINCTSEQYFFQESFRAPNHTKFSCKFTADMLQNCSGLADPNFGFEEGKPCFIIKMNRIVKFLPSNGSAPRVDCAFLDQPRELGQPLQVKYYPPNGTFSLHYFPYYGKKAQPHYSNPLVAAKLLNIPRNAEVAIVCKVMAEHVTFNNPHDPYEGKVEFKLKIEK

In the case of COCCCOc1ccnc(C[S+]([O-])c2nc3ccccc3[nH]2)c1C (centres unmarked) [rabeprazole, 2-{[[4-(3-methoxypropoxy)-3-methyl]-2-pyridinyl]sulfinyl}-1H-benzimidazole sodium salt], the oral bioavalability is given as “about 50%” and the “effect on intragastric pH in relation to cytochrome P450 2C19 genotype” value [1] is given as “unaffected”.
